In assay [1] the test system is HCT116 cancer cells. As to the kind of experiment: Cell viability (MTT) assay, HCT116. The conditions noted are these: Homo sapiens, HCT-116; inhibiting the growth of HCT116 cancer cells, cell viability assay (Table 5). In kind it is cell-based. The procedure:
(§1) Cell viability was analyzed by using a colorimetric 3-(4,5-dimethylthiazol-[…]2-yl)-2,5-diphenyletetrazolium Bromide (MTT) assay that determines mitochondrial dehydrogenase activities in the living cells with a colorimetric method. Cells treated with test compounds were incubated with MTT and their effect on the viability of the cells was assayed by the ability of treated cells to reduce the yellow tetrazolium dye MTT to its insoluble formazan, which has a purple color. […]

Another assay deals with MDA-MB-231 cancer cells. As to the kind of experiment: Cell viability (MTT) assay, MDA-MB-231. In kind it is cell-based. The following applies: Homo sapiens; inhibiting the growth of MDA-MB-231 cancer cells, cell viability assay (Table 6). The procedure: as §1
In a further assay the test system is HCT116 cells. The experiment in a line: PARP cleavage assay (Western blotting), HCT116. In kind it is cell-based. The conditions noted are these: 0.5 μM, 6 hours, Western blotting. The text has this:
(§2) Compound 1a had no effect under the same conditions (FIG. 1A). […] Compound 1a, 28a, 47a, 48a, 73a, 39a, 70a, 103a, 89a and 88a had no effect under the same conditions (FIG. 3B-C).

The next assay has as its system MDA-MB-231 cells. As to the kind of experiment: PARP cleavage assay (Western blotting), MDA-MB-231. It is filed as cell-based. The conditions noted are these: 6 hours.
Excerpt: as §2

In assay [2] the test system is HCT116 cancer cells. The experiment in a line: Apoptosis assay, Annexin V-FITC/propidium iodide flow cytometry. In kind it is cell-based. The conditions noted are these: Homo sapiens, HCT-116, 6 hours, Annexin V-FITC/PI flow cytometry (Table 4). The procedure: HCT116 cancer cells plated at a density of 1×10^6 per well on six-well plates were treated with different concentration of test compounds for 6 hours, and then the suspension and the adherent cells were collected, stained with Annexin V-FITC for 15 minutes and with propodium iodide for 5 minutes, and analyzed immediately by cytoFLEX Flow Cytometry System (Beckman-Coulter, Miami, Fla., USA) using FITC and PC5.5 (Table 4).

The next assay has as its system pBind-RXRa-LBD and Nur77. The experiment in a line: Mammalian one hybrid assay, Gal4-RXRa-LBD with Nur77. It is filed as cell-based. The following applies: cotransfection of pBind-RXRa-LBD and Nur77, Dual-Luciferase (FIG. 10). The procedure:
(§3) HEK293T cells were co-transfected with pG5 Luciferase reporter together with the plasmid encoding RXRa-LBD fused with the Gal4 DNA-binding domain and other expression plasmids. After transfection, cells were treated with DMSO or a test compound, and assayed by using the Dual-Luciferase Reporter Assay System (Promega). Transfection efficiency was normalized to Renilla luciferase activity.
(§4) To exclude the possibility that Compound 1 acted on RXRa, Glu453 and Glu456 in the RXRa activation function 2 (AF2) region were substituted with Ala and the resulting mutant, RXRa-LBD/E453,6A, was used.

Assay [3] deals with Nur77 and pBind-RXRa-LBD-E453,6A. The experiment in a line: Mammalian one hybrid assay, RXRa-LBD/E453,6A mutant with Nur77. In kind it is cell-based. The conditions noted are these: cells transfected with Nur77 and pBind-RXRa-LBD-E453,6A. The procedure: as §3, §4
Assay [4] deals with mTOR markers p-S6 and p-4EBP1. As to the kind of experiment: mTOR inhibition: expression of mTOR markers. It is filed as cell-based. The conditions noted are these: MDA-MB-231 cells, 1 μM, 6 hours.
The target of assay [5] is T1, Nur77 (Homo sapiens, UniProt P22736).
T1 construct: expressed in transfected cells
T1 sequence (P22736 whole entry): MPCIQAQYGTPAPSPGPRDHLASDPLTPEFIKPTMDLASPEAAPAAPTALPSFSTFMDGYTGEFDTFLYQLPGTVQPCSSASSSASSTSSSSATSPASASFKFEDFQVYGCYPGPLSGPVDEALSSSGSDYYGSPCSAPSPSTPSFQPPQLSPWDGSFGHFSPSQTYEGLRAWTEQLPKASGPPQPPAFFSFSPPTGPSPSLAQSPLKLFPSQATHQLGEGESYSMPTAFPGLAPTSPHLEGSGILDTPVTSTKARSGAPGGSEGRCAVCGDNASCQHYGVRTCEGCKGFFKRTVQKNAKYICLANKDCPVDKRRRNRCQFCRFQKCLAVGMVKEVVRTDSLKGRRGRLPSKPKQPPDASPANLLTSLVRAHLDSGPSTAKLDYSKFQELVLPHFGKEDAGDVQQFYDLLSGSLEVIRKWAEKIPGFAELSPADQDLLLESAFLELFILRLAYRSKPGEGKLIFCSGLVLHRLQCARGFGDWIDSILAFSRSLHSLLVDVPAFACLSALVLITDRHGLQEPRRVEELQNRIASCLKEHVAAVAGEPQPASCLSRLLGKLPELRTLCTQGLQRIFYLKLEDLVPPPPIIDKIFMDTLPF
The experiment in a line: Cellular fractionation and immunostaining: mitochondrial targeting of Nur77. It is filed as cell-based. The conditions noted are these: mitochondria fractionation, 1μM. The procedure:
(§5) For cellular fractionation, cells were lysed in cold buffer A (10 mM HEPES-KOH (pH 7.9), 1.5 mM MgCl2, 10 mM KCl, 0.5 mM dithiothreitol) with a cocktail of proteinase inhibitors on ice for 10 min as described. Cytoplasmic fraction was collected by centrifuging at 6000 rpm for 30 seconds. Pellets containing nuclei were resuspended in cold high-salt buffer C (20 mM HEPES-KOH (pH 7.9), 25% glycerol, 420 mM NaCl, 1.5 mM MgCl2, 0.2 mM EDTA, 0.5 mM dithiothreitol) with a cocktail of proteinase inhibitors on ice for 30 minutes.

Assay [6] has as its system Nur77. The assay is described as above. It is filed as cell-based. The conditions noted are these: immunostaining. Here is the method: as §5
The next assay concerns PyMT mammary tumor. As to the kind of experiment: MMTV-PyMT mice breast cancer model. In kind it is in vivo. The procedure: Female MMTV-PyMT mice of 12 weeks old were randomly divided into two groups (n=7 each), treated with a daily oral dose of test compound for 18 days. Standard histopathological analysis of tumor tissue was performed (see Example A-19). Test compounds were dissolved in DMSO and diluted with normal saline containing 5.0% (V/V) Tween-80 to a final concentration 0.5 mg/ml. Normal saline with DMSO and 5.0% Tween-80 was employed as the vehicle control.
4 μm thick sections were deparaffinized and rehydrated using xylene and a graded series of ethanol (100, 95, 85, 75, 50%), followed by washing in PBS. Antigen retrieval was performed in 10 mM sodium citrate buffer (pH 6.0), which was microwaved at 100° C. for 20 minutes. After rinsed twice in PBS, sections were blocked at room temperature for 1 hour by using 10% normal goat serum, followed by incubation with anti-ki-67, anti-cleaved-caspase-3, overnight (at least 17 hours) at 4° C. Colors were developed with a DAB horseradish peroxidase color development kit.

For assay [7], the system named is Nur77 interaction with Bcl-2. As to the kind of experiment: Cell-based co-immunoprecipitation of Nur77 and Bcl-2. The following applies: Nur77 transfected in HeLa cells. The procedure:
Western blotting and co-immunopreciptations (co-IP) were performed. Briefly, cells transfected with or without expression vectors for Nur77 and Bcl-2 were treated with test compounds for 2 hours. The effect of compounds on the interaction of endogenous or transfected Nur77 and Bcl-2 was analyzed by co-immunoprecipitation using appropriate antibodies. Proteins immunoprecipitated from cells by an appropriate anti-Nur77 or anti-Bcl-2 antibody were analyzed by Western blotting.

Assay [8] deals with Nur77 interaction with Bcl-2. As to the kind of experiment: Confocal microscopy colocalization of Nur77 with Bcl-2. In kind it is cell-based.

A value given as a limit tells only on which side of the number the result lay.

Turning to `FC(F)(F)c1ccc(C(c2c[nH]c3ccccc23)c2c[nH]c3ccccc23)cc1` [Compound 1a, reference compound], the IC50 in the assay with HCT116 cancer cells [1] and in the assay on MDA-MB-231 cancer cells was no less than 5000 nM throughout. Besides, the PARP cleavage entry in the assay with HCT116 cells and with MDA-MB-231 cells (0.5 μM) was “no effect” throughout.

As to `Clc1ccc([C+](c2c[nH]c3ccccc23)c2c[nH]c3ccccc23)cc1` [Compound 5, Bis(1H-indol-3-yl)(4-chlorophenyl)methylium methanesulfonate], the IC50 with HCT116 cancer cells [2] and in the assay on HCT116 cancer cells [1] was less than 500 nM throughout.

Regarding `COc1ccc([C+](c2c[nH]c3ccccc23)c2c[nH]c3ccccc23)cc1` [Compound 7, Bis(1H-indol-3-yl)(4-methoxyphenyl)methylium methanesulfonate], the IC50 in the assay on HCT116 cancer cells [2] and in the assay with HCT116 cancer cells [1] was 500 to 5000 nM each time.

As to `COC(=O)c1ccc([C+](c2c[nH]c3ccccc23)c2c[nH]c3ccccc23)cc1` [Compound 8, Bis(1H-indol-3-yl)(4-(methoxycarbonyl)phenyl)methylium methanesulfonate], the IC50 with HCT116 cancer cells [2] and in the assay with HCT116 cancer cells [1] was less than 500 nM in each case.

Regarding `CC1=C(/C=C/C(C)=C\C=C\C(C)=C\C(=O)O)C(C)(C)CCC1` [Compound 9-cis-RA, 9-cis-RA, reference compound], the reporter transcriptional activity result in the assay with pBind-RXRa-LBD and Nur77 is “strongly activate”; in assay [3] it was “failed to induce the reporter activity”.

Turning to `Cn1cc([C+](c2ccc(C(F)(F)F)cc2)c2c[nH]c3ccccc23)c2ccccc21` [Compound 28, (1-Methyl-1H-indol-3-yl)(1H-indol-3-yl)(4-(trifluoromethyl)phenyl)methylium methanesulfonate], the IC50 in the assay with HCT116 cancer cells [1] and with MDA-MB-231 cancer cells was less than 500 nM each time. For the same compound, the results for the PARP cleavage result with MDA-MB-231 cells (0.5 μM) and in the assay with MDA-MB-231 cells (1 μM) were “effectively induced PARP cleavage” and “effectively induce PARP cleavage”, respectively. For the same compound, the “expression levels of mTOR markers p-S6 and p-4EBP1” value in assay [4] is on record as “reduced the expression levels”. Also, the “Myc-Nur77 in heavy membrane (HM) fraction” value on Nur77 [5] is “accumulated in the mitochondria-enriched heavy membrane (HM) fraction”. The “Myc-Nur77-LBD colocalization with mitochondria” value with Nur77 [6] is “colocalized extensively with the mitochondria”. Further, the “expression levels of mTOR markers p-S6 and p-mTOR in tumor” value in the assay with PyMT mammary tumor (3 mg/kg) is “markedly reduced”. Also, in the assay on PyMT mammary tumor (3 mg/kg daily oral, 18 days), the “growth of PyMT mammary tumor” value was “inhibited the growth of PyMT mammary tumor”. Also, the “Nur77 interaction with Bcl-2 (Co-IP)” value in [7] is “interacted with Bcl-2”. Besides, the “colocalization of transfected GFP-Nur77 (and GFP-Nur77-LBD) with Bcl-2” value in [8] is “promoted extensive colocalization”.

`CCCn1cc([C+](c2ccc(C(F)(F)F)cc2)c2c[nH]c3ccccc23)c2ccccc21.[Cl-]` [Compound 48, (1-Propyl-1H-indol-3-yl)(1H-indol-3-yl)(4-(trifluoromethyl)phenyl)methylium chloride]: the IC50 with HCT116 cancer cells [1] and in the assay with MDA-MB-231 cancer cells was less than 500 nM in each case. The PARP cleavage result with MDA-MB-231 cells (0.5 μM) is reported as “effectively induced PARP cleavage”; in the assay on MDA-MB-231 cells (1 μM), “effectively induce PARP cleavage”. Moreover, the “expression levels of mTOR markers p-S6 and p-4EBP1” value in assay [4] was “reduced the expression levels”.

With `Fc1cccc2c([C+](c3ccc(C(F)(F)F)cc3)c3c[nH]c4ccccc34)c[nH]c12.[Cl-]` [Compound 71, (7-Fluoro-1H-indol-3-yl)(1H-indol-3-yl)(4-(trifluoromethyl)phenyl)methylium chloride], the IC50 in the assay with HCT116 cancer cells [1] and in the assay with MDA-MB-231 cancer cells was less than 500 nM throughout. For the same compound, in the assay with MDA-MB-231 cells (1 μM), the PARP cleavage entry is listed as “effectively induce PARP cleavage”. Besides, the “expression levels of mTOR markers p-S6 and p-4EBP1” value in assay [4] was “reduced the expression levels”.

Take `Fc1ccc2[nH]cc([C+](c3ccc(C(F)(F)F)cc3)c3c[nH]c4ccccc34)c2c1.[Cl-]` [Compound 73, (5-Fluoro-1H-indol-3-yl)(1H-indol-3-yl)(4-(trifluoromethyl)phenyl)methylium chloride]: the IC50 with HCT116 cancer cells [1] and in the assay on MDA-MB-231 cancer cells was less than 500 nM throughout. For the same compound, the values for the PARP cleavage result in the assay on MDA-MB-231 cells (0.5 μM) and in the assay with MDA-MB-231 cells (1 μM) were “effectively induced PARP cleavage” and “effectively induce PARP cleavage”, respectively. In addition, the “expression levels of mTOR markers p-S6 and p-4EBP1” value in [4] was “reduced the expression levels”.

For the compound `O=C(O)c1ccc([C+](c2c[nH]c3ccccc23)c2c[nH]c3ccccc23)cc1` [Compound 82, Bis(1H-indol-3-yl)(4-carboxyphenyl)methylium methanesulfonate], the IC50 in the assay with HCT116 cancer cells [2] and in the assay with HCT116 cancer cells [1] was 500 to 5000 nM each time.

Source of the values: patent US20210024499A1, “OXIDIZED BIS(3-INDOLYL)METHANES AND USES THEREOF” (Sanford Burnam Prebys Medical Discovery Institute, priority 2018, published 2021).
